For one data set, the target named is T1, p38MAPKγ (MAPK12) (Homo sapiens, UniProt P53778).
T1 construct: purchased Life Technologies
T1 sequence (P53778 1-367): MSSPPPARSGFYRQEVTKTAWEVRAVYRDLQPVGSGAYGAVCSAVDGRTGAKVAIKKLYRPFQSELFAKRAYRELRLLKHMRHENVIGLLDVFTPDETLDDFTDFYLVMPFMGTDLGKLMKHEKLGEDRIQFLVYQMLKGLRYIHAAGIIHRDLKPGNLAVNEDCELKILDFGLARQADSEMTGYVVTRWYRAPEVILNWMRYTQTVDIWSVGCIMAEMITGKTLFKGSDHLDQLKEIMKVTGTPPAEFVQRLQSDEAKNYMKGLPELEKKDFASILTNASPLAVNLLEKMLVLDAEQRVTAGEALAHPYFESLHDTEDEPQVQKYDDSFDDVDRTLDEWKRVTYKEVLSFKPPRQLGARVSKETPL
Kind of data set: p38 MAPKγ enzyme inhibition (Z-LYTE FRET). The data set is classed as biochemical. The settings on record: Table 2A; read-out: IC50 Values for Enzyme Inhibition p38 MAPKγ. The method in brief:
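Enzyme (added at 800 ng/mL) was preincubated 2 h at RT with compound (solutions of 40 to 0.0012 μg/mL), then FRET peptide (8 μM) and ATP (400 μM), both as added, were reacted 1 h at RT. Protease development followed for 1 h; phosphorylation was read as the coumarin/fluorescein emission ratio.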

Another data set addresses T2, Hck (Homo sapiens, UniProt P08631).
T2 construct: purchased Life Technologies
Nature of the data set: Hck enzyme inhibition (Z-LYTE FRET). The class given is biochemical. The note with it: Table 2A. Summed up: (§1)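 Z-LYTE readout: coumarin-to-fluorescein ratio after 1 h protease cleavage of unphosphorylated peptide. Kinase reactions ran 1 h at RT with ATP stock at 800 μM (c-Src) or 60 μM (Hck, Syk), following 2 h compound preincubation over 0.0012–40 μg/mL; enzyme stocks 1000/1400/2000 ng/mL.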

The next data set concerns the target T3, c-Src (Homo sapiens, UniProt P12931).
T3 construct: purchased Life Technologies
Nature of the data set: c-Src enzyme inhibition (Z-LYTE FRET). The settings on record: Table 2A. The data set is classed as biochemical. Summed up:
as §1

Another data set concerns the target T4, Syk (Homo sapiens, UniProt P43405).
T4 construct: purchased Life Technologies
Kind of data set: Syk enzyme inhibition (Z-LYTE FRET). The settings on record: Table 2A. The class given is biochemical. Summed up: as §1

The subject of data set [1] is ICAM-1 expression in BEAS2B cells. Nature of the data set: Poly I:C-induced ICAM-1 expression in BEAS2B cells. The data set is classed as cell-based. The note with it: Homo sapiens, BEAS-2B, read-out: PolyIC/ICAM1 IC50 (BEAS2B). The method in brief: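 ICAM-1 readout: cell-based ELISA at 18 h post-transfection, OD450-655 divided by crystal violet OD595 per well. Stimulus was Oligofectamine-delivered Poly I:C (1 μg/mL) as RNA-virus mimic in BEAS2B cells, with compound added 2 h beforehand. Percent inhibition versus vehicle.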

Another data set has as its system d-U937 cells. Kind of data set: Cell viability: MTT assay in differentiated U937 cells. The data set is classed as cell-based, human. The note with it: 10 μg/mL. The method in brief: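 Viability loss, calculated against 0.5% DMSO vehicle (gains reported negative), was measured by MTT reduction (1 h) and A550 after DMSO solubilisation. Compound exposure of d-U937 cells was 10 μg/mL final, for 24 h in 10% FCS or 4 h in 5% FCS RPMI1640.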

T3 sequence (P12931 whole entry): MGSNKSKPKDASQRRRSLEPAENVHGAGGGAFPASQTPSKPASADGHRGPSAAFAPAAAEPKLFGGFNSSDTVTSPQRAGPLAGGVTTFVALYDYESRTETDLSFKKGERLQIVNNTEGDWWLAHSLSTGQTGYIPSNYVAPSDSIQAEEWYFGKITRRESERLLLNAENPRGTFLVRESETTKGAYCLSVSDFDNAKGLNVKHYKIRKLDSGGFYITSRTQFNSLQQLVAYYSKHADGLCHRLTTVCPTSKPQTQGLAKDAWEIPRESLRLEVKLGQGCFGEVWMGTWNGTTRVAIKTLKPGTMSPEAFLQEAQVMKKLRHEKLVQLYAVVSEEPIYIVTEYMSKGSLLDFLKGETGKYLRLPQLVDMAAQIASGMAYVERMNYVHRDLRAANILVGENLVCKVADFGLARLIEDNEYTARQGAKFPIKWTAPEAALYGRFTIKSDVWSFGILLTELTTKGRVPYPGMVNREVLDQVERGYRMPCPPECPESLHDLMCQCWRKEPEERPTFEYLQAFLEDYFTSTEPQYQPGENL
T2 sequence (P08631 22-526): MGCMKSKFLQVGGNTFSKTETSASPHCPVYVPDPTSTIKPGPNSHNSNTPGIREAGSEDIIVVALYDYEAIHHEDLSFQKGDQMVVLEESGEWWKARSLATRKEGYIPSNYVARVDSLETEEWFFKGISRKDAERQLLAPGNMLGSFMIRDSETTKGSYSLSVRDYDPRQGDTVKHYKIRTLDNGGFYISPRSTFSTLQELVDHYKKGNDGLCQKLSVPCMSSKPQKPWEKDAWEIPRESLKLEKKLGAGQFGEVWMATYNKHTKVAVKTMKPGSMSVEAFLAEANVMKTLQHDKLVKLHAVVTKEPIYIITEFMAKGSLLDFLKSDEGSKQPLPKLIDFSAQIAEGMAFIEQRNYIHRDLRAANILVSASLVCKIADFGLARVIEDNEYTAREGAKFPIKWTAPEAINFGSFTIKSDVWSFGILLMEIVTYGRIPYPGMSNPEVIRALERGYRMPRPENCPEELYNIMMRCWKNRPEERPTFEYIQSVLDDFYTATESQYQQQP

`Cc1ccc(-n2nc(C(C)(C)C)cc2NC(=O)Nc2ccc(OCc3ccnc(Nc4cncc(C5CCCC5)n4)c3)c3ccccc23)cc1` [Example 48]: the IC50 is 1230 nM on p38MAPKγ (MAPK12); 133 nM on Hck; 459 nM on c-Src; above 15000 nM against Syk; 92.5 nM in data set [1]. Moreover, the “MTT Assay Cell viability at time point indicated in d-U937 Cells, 4 h” value (shortened to “MTT Assay Cell viability … in d-U937 Cells, 4 h”) in the data set on d-U937 cells was “− (−ve and +ve indicate the value is below and above, respectively, the no significant effect threshold defined as 30% inhibition at 10 μg/mL at the time point indicated)”. In the data set with d-U937 cells, the “MTT Assay Cell viability at time point indicated in d-U937 Cells, 24 h” value (shortened to “MTT Assay Cell viability … 24 h”) was “− (−ve and +ve indicate the value is below and above, respectively, the no significant effect threshold defined as 30% inhibition at 10 μg/mL at the time point indicated)”.

As for `CC(C)(C)c1cc(NC(=O)Nc2ccc(OCc3ccnc(Nc4cnccn4)c3)c3ccccc23)n(-c2cccc(F)c2)n1` [Example 49], the IC50 at p38MAPKγ (MAPK12) came out at 129 nM; on Hck, 115 nM; against c-Src, 556 nM; against Syk, 9250 nM; in data set [1], 474 nM. Moreover, in the data set on d-U937 cells, the “MTT Assay Cell viability … in d-U937 Cells, 4 h” value was “− (−ve and +ve indicate the value is below and above, respectively, the no significant effect threshold defined as 30% inhibition at 10 μg/mL at the time point indicated)”. For the same compound, the “MTT Assay Cell viability … 24 h” value in the data set with d-U937 cells is “− (−ve and +ve indicate the value is below and above, respectively, the no significant effect threshold defined as 30% inhibition at 10 μg/mL at the time point indicated)”.

Regarding `CC(C)(C)c1cc(NC(=O)Nc2ccc(OCc3ccnc(Nc4cnccn4)c3)c3ccccc23)n(-c2cccc(Cl)c2)n1` [Example 50], the IC50 at p38MAPKγ (MAPK12) is 356 nM; against Hck it was 113 nM; at c-Src, 966 nM; at Syk, 5820 nM; in data set [1], above 1620 nM. In addition, the “MTT Assay Cell viability … in d-U937 Cells, 4 h” value in the data set on d-U937 cells was “− (−ve and +ve indicate the value is below and above, respectively, the no significant effect threshold defined as 30% inhibition at 10 μg/mL at the time point indicated)”. Also, the “MTT Assay Cell viability … 24 h” value with d-U937 cells was “− (−ve and +ve indicate the value is below and above, respectively, the no significant effect threshold defined as 30% inhibition at 10 μg/mL at the time point indicated)”.

Consider `Cc1ccc(-n2nc(C(C)(C)C)cc2NC(=O)Nc2ccc(OCc3ccnc(Nc4cnccn4)c3)c3ccccc23)cc1C` [Example 51], for which the IC50 was 171 nM on p38MAPKγ (MAPK12); 36 nM against Hck; 160 nM at c-Src; above 16300 nM against Syk; 281 nM in data set [1]. In addition, the “MTT Assay Cell viability … in d-U937 Cells, 4 h” value with d-U937 cells was “− (−ve and +ve indicate the value is below and above, respectively, the no significant effect threshold defined as 30% inhibition at 10 μg/mL at the time point indicated)”. Further, in the data set on d-U937 cells, the “MTT Assay Cell viability … 24 h” value was “− (−ve and +ve indicate the value is below and above, respectively, the no significant effect threshold defined as 30% inhibition at 10 μg/mL at the time point indicated)”.

Take `Cc1ccc(-n2nc(C(C)(C)C)cc2NC(=O)Nc2ccc(OCc3ccnc(Nc4cnccn4)c3)c3ccccc23)cc1C(F)(F)F` [Example 52]: the IC50 on p38MAPKγ (MAPK12) is above 15000 nM; against Hck it was 316 nM; on c-Src it was above 15000 nM; on Syk it was above 15000 nM; in data set [1], above 1500 nM. Also, the “MTT Assay Cell viability … in d-U937 Cells, 4 h” value in the data set with d-U937 cells was “− (−ve and +ve indicate the value is below and above, respectively, the no significant effect threshold defined as 30% inhibition at 10 μg/mL at the time point indicated)”. Further, the “MTT Assay Cell viability … 24 h” value with d-U937 cells was “− (−ve and +ve indicate the value is below and above, respectively, the no significant effect threshold defined as 30% inhibition at 10 μg/mL at the time point indicated)”.

Values taken from patent US11142515B2, “Pyrazolyl-ureas as kinase inhibitors” (RESPIVERT LIMITED, priority 2014, dated 2021).
